Laboratory results reported in patent publication US8012998B2, “Pyrrolidine aryl-ether as NK-3 receptor antagonists” (Hoffmann—LA Roche Inc., priority 2007, dated 2011).

Molecular target: T1, human NK3 receptor (Homo sapiens, UniProt P29371)
T1 construct: expressed in transfected cells; host or cells: HEK293 cells (transient expression), membrane preparation
T1 sequence (P29371 1-465): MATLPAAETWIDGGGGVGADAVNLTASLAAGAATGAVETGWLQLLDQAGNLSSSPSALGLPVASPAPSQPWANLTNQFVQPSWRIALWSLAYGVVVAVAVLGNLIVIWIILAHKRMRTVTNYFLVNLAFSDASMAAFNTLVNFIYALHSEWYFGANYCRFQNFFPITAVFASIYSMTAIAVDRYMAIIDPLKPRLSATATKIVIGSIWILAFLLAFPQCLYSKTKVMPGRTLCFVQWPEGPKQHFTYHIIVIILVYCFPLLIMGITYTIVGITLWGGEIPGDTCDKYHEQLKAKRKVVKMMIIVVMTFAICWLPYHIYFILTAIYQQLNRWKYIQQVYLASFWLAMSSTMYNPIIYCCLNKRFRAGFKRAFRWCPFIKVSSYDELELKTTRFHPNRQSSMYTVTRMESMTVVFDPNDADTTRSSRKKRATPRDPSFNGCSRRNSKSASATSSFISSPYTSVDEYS
Assay: [3H]SR142801 competition binding assay (hNK3 receptor binding)
Details: [3H]SR142801 radioligand; membranes from HEK293 cells transiently expressing recombinant human NK3 receptor; Ki by Cheng-Prussoff; read-out: KiNK3 h
Procedure: [^3H]SR^142801 Competition Binding Assay
hNK3 receptor binding experiment were performed using [^3H]SR^142801 (Catalog No. TRK1035, specific activity: 74.0 Ci/mmol, Amersham, GE Healthcare UK limited, Buckinghamshire, UK) and membrane isolated from HEK293 cells transiently expressing recombinant human NK3 receptor. After thawing, the membrane homogenates were centrifuged at 48,000×g for 10 min at 4° C., the pellets were resuspended in the 50 mM Tris-HCl, 4 mM MnCl2, 1 μM phosphoramidon, 0.1% BSA binding buffer at pH 7.4 to a final assay concentration of 5 μg protein/well. […] At the end of the incubation, membranes were filtered onto unitfilter (96-well white microplate with bonded GF/C filter preincubated 1 h in 0.3% PEI +0.3% BSA, Packard BioScience, Meriden, Conn.) with a Filtermate 196 harvester (Packard BioScience) and washed 4 times with ice-cold 50 mM Tris-HCl, pH 7.4 buffer. Nonspecific binding was measured in the presence of 10 μM SB222200 for both radioligands. The radioactivity on the filter was counted (5 min) on a Packard Top-count microplate scintillation counter with quenching correction after addition of 45 μl of microscint 40 (Canberra Packard S.A., Zutrich, Switzerland) and shaking for 1 h. Inhibition curves were fitted according to the Hill equation: y=100/(1+(x/IC50)^nH), where nH=slope factor using Excel-fit 4 software (Microsoft). IC50 values were derived from the inhibition curve and the affinity constant (Ki) values were calculated using the Cheng-Prussoff equation Ki=IC50/(1+[L]/KD) where [L] is the concentration of radioligand and KD is its dissociation constant at the receptor, derived from the saturation isotherm. All experiments were performed in duplicate and the mean ± standard error (SEM) of the individual Ki values was calculated.

| Compound | Ki [nM] |
| --- | --- |
| C[C@H](Oc1ccc(C#N)cn1)[C@H]1CN(C(=O)c2cnc(C3CC3)nc2)C[C@@H]1c1ccc(Cl)c(Cl)c1 [Example 84, 6-{(S)-1[-(3R,4S)-1-(2-Cyclopropyl-pyrimidine-5-carbonyl)-4-(3,4-dichloro-phenyl)-pyrrolidin-3-yl]-ethoxy}-nicotinonitrile] | 22 |
| Cc1ncc(C(=O)N2C[C@H]([C@H](CO)Oc3ccc(Cl)cn3)[C@@H](c3ccc(Cl)c(Cl)c3)C2)cn1 (racemic) [Example 87, [(3RS,4SR)-3-[(RS)-1-(5-Chloro-pyridin-2-yloxy)-2-hydroxy-ethyl]-4-(3,4-dichloro-phenyl)-pyrrolidin-1-yl]-(2-methyl-pyrimidin-5-yl)-methanone] | 56.2 |
| COc1cc(C(=O)N2C[C@@H]([C@@H](C)Oc3ccc(Cl)cn3)[C@H](c3ccc(Cl)c(Cl)c3)C2)ccn1 (racemic) [Example 18, [(3SR,4RS)-3-[(RS)-1-(5-Chloro-pyridin-2-yloxy)-ethyl]-4-(3,4-dichloro-phenyl)-pyrrolidin-1-yl]-(2-methoxy-pyridin-4-yl)-methanone] | 22.7 |
| C[C@@H](Oc1ccc(Cl)cn1)[C@@H]1CN(C(=O)c2ccc(CCN(C)C)cc2)C[C@H]1c1ccc(Cl)c(Cl)c1 [Example 44, [(3S,4R)-3-[(R)-1-(5-Chloro-pyridin-2-yloxy)-ethyl]-4-(3,4-dichloro-phenyl)-pyrrolidin-1-yl]-[4-(2-dimethylamino-ethyl)-phenyl]-methanone] | 11.8 |
| CCc1noc(-c2ccc(C(=O)N3C[C@H]([C@H](C)Oc4ccc(C#N)cn4)[C@@H](c4ccc(Cl)c(Cl)c4)C3)cc2)n1 (racemic) [Example 62, 6-((SR)-1-{(3RS,4SR)-4-(3,4-Dichloro-phenyl)-1-[4-(3-ethyl-[1,2,4]oxadiazol-5-yl)-benzoyl]-pyrrolidin-3-yl}-ethoxy)-nicotinonitrile] | 59.4 |
| COc1ncc(C(=O)N2C[C@H]([C@H](C)Oc3ccc(C#N)cn3)[C@@H](c3ccc(Cl)c(Cl)c3)C2)cn1 (racemic) [Example 70, 6-{(SR)-1-[(3RS,4SR)-4-(3,4-Dichloro-phenyl)-1-(2-methoxy-pyrimidine-5-carbonyl)-pyrrolidin-3-yl]-ethoxy}-nicotinonitrile] | 34.9 |
| Cc1ncc(C(=O)N2CC(C(C)Oc3ccc(Cl)cn3)[C@H](c3ccc(Cl)c(Cl)c3)C2)cn1 (stereo in doubt) [Example 41, [(3S,4R)-3-[(R)-1-(5-Chloro-pyridin-2-yloxy)-ethyl]-4-(3,4-dichloro-phenyl)-pyrrolidin-1-yl]-(2-methyl-pyrimidin-5-yl)-methanone] | 66.4 |
| C[C@H](Oc1ccc(C#N)cn1)[C@H]1CN(C(=O)c2cncc(F)c2)C[C@@H]1c1ccc(Cl)c(Cl)c1 (racemic) [Example 74, 6-{(SR)-1-[(3RS,4SR)-4-(3,4-Dichloro-phenyl)-1-(5-fluoro-pyridine-3-carbonyl)-pyrrolidin-3-yl]-ethoxy}-nicotinonitrile] | 18.6 |
| Cc1ncc(C(=O)N2C[C@H]([C@H](C)Oc3ccc(C#N)cn3)[C@@H](c3ccc(Cl)c(Cl)c3)C2)c(C)n1 (racemic) [Example 36, 6-{(SR)-1-[(3RS,4SR)-4-(3,4-Dichloro-phenyl)-1-(2,4-dimethyl-pyrimidine-5-carbonyl)-pyrrolidin-3-yl]-ethoxy}-nicotinonitrile] | 84 |

Continued, values first:

| Ki [nM] | Compound |
| --- | --- |
| 6.8 | Cc1cncc(C(=O)N2C[C@H]([C@H](C)Oc3ccc(C#N)cn3)[C@@H](c3ccc(Cl)c(Cl)c3)C2)c1 (racemic) [Example 73, 6-{(SR)-1-[(3RS,4SR)-4-(3,4-Dichloro-phenyl)-1-(5-methyl-pyridine-3-carbonyl)-pyrrolidin-3-yl]-ethoxy}-nicotinonitrile] |
| 2 | C[C@@H](Oc1ccc(Cl)cn1)[C@@H]1CN(C(=O)c2ccc(C#N)nc2)C[C@H]1c1ccc(Cl)c(Cl)c1 (racemic) [Example 35, 5-[(3SR,4RS)-3-[(RS)-1-(5-Chloro-pyridin-2-yloxy)-ethyl]-4-(3,4-dichloro-phenyl)-pyrrolidine-1-carbonyl]-pyridine-2-carbonitrile] |
| 3.5 | C[C@H](Oc1ccc(C#N)cn1)[C@H]1CN(C(=O)c2ccc(OCC(F)(F)F)nc2)C[C@@H]1c1ccc(Cl)c(Cl)c1 (racemic) [Example 76, 6-((SR)-1-{(3RS,4SR)-4-(3,4-Dichloro-phenyl)-1-[6-(2,2,2-trifluoro-ethoxy)-pyridine-3-carbonyl]-pyrrolidin-3-yl}-ethoxy)-nicotinonitrile] |
| 11.8 | Cc1ncc(C(=O)N2C[C@@H]([C@@H](C)Oc3ccc(Cl)cn3)[C@H](c3ccc(Cl)c(Cl)c3)C2)cn1 (racemic) [Example 17, [(3SR,4RS)-3-[(RS)-1-(5-Chloro-pyridin-2-yloxy)-ethyl]-4-(3,4-dichloro-phenyl)-pyrrolidin-1-yl]-(2-methyl-pyrimidin-5-yl)-methanone] |
| 7.3 | CSc1ccc(C(=O)N2C[C@@H]([C@@H](C)Oc3ccc(Cl)cn3)[C@H](c3ccc(Cl)c(Cl)c3)C2)cn1 (racemic) [Example 45, [(3SR,4RS)-3-[(RS)-1-(5-Chloro-pyridin-2-yloxy)-ethyl]-4-(3,4-dichloro-phenyl)-pyrrolidin-1-yl]-(6-methylsulfanyl-pyridin-3-yl)-methanone] |
| 9.1 | Cc1cc(C(=O)N2C[C@H]([C@H](C)Oc3ccc(C#N)cn3)[C@@H](c3ccc(Cl)c(Cl)c3)C2)cnn1 (racemic) [Example 89, 6-{(SR)-1-[(3RS,4SR)-4-(3,4-Dichloro-phenyl)-1-(6-methyl-pyridazine-4-carbonyl)-pyrrolidin-3-yl]-ethoxy}-nicotinonitrile] |
| 2.6 | C[C@H](Oc1ccc(C#N)cn1)[C@H]1CN(C(=O)c2ccc(-n3cccn3)nc2)C[C@@H]1c1ccc(Cl)c(Cl)c1 (racemic) [Example 65, 6-{(SR)-1-[(3RS,4SR)-4-(3 ,4-Dichloro-phenyl)-1-(6-pyrazol-1-yl-pyridine-3-carbonyl)-pyrrolidin-3-yl]-ethoxy}-nicotinonitrile] |
| 5.8 | C[C@@H](Oc1ccc(Cl)cn1)[C@@H]1CN(C(=O)c2ccc(N(C)C)nc2)C[C@H]1c1ccc(Cl)c(Cl)c1 (racemic) [Example 19, [(3SR,4RS)-3-[(RS)-1-(5-Chloro-pyridin-2-yloxy)-ethyl]-4-(3,4-dichloro-phenyl)-pyrrolidin-1-yl]-(6-dimethylamino-pyridin-3-yl)-methanone] |
| 5.6 | [(3S,4R)-3-[(R)-1-(5-Chloro-pyridin-2-yloxy)-ethyl]-4-(3,4-dichloro-phenyl)-pyrrolidin-1-yl]-(6-methoxy-pyridin-3-yl)-methanone and [(3R,4S)-3-[(S)-1-(5-Chloro-pyridin-2-yloxy)-ethyl]-4-(3,4-dichloro-phenyl)-pyrrolidin-1-yl]-(6-methoxy-pyridin-3-yl)-methanone [Example 21] |
| 3.8 | C[C@H](Oc1ccc(C#N)cn1)[C@H]1CN(C(=O)c2ccc(S(C)(=O)=O)nc2)C[C@@H]1c1ccc(Cl)c(Cl)c1 (racemic) [Example 66, 6-{(SR)-1-[(3RS,4SR)-4-(3,4-Dichloro-phenyl)-1-(6-methanesulfonyl-pyridine-3-carbonyl)-pyrrolidin-3-yl]-ethoxy}-nicotinonitrile] |
| 5.8 | C[C@H](Oc1ccc(C#N)cn1)[C@H]1CN(C(=O)c2ccc(C#N)cc2F)C[C@@H]1c1ccc(Cl)c(Cl)c1 (racemic) [Example 67, 6-{(SR)-1-[(3RS,4SR)-1-(4-Cyano-2-fluoro-benzoyl)-4-(3,4-dichloro-phenyl)-pyrrolidin-3-yl]-ethoxy}-nicotinonitrile] |
| 2.1 | C[C@H](Oc1ccc(C#N)cn1)[C@H]1CN(C(=O)c2ccc(-c3cnco3)cc2)C[C@@H]1c1ccc(Cl)c(Cl)c1 (racemic) [Example 59, 6-{(SR)-1-[(3RS,4SR)-4-(3,4-Dichloro-phenyl)-1-(4-oxazol-5-yl-benzoyl)-pyrrolidin-3-yl]-ethoxy}-nicotinonitrile] |
| 1.1 | Cc1noc(-c2ccc(C(=O)N3C[C@H]([C@H](C)Oc4ccc(C#N)cn4)[C@@H](c4ccc(Cl)c(Cl)c4)C3)cc2)n1 (racemic) [Example 60, 6-((SR)-1-{(3RS,4SR)-4-(3,4-Dichloro-phenyl)-1-[4-(3-methyl-[1,2,4]oxadiazol-5-yl)-benzoyl]-pyrrolidin-3-yl}-ethoxy)-nicotinonitrile] |
